Measured values from the supplement of paper PMC7224384.

Tests used:
MDA-MB-453 [1] = assay: drug sensitivity score (DSS), single agent (DSS (weighted AUC score)); higher = more sensitive (stronger viability decrease); extreme values may be limits of the assay; details: BLU9931 0 nM; 72 h
Summary of the method: (§1)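 Each 384-well plate held compounds from the FIMM Oncology set, predispensed in singlicate at five 10-fold dilutions spanning a 10,000-fold range, and each well then received 2000 MDA-MB-453 cells in medium with or without an FGFR4 inhibitor at 100 nM final. Plates stayed at 37 °C, 5% CO2 for 72 h, after which cellular ATP was measured with CellTiterGlo 2.0. Readings were converted per plate into percent viability against control wells, and the drug sensitivity score was taken as a weighted area under a four-parameter logistic fit.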

MDA-MB-453 [2] = assay: drug sensitivity score (DSS), in combination with BLU9931 (DSS (weighted AUC score)); higher = more sensitive (stronger viability decrease); extreme values may be limits of the assay; details: BLU9931 100 nM; 72 h
Summary of the method: as §1

CN(C)CCOc1ccc(/C(=C(/CCCl)c2ccccc2)c2ccccc2)cc1 [Toremifene]
drug sensitivity score (MDA-MB-453 [1]): 6
drug sensitivity score (MDA-MB-453 [2]): 4.1

CN1CC[C@@H](NC(=O)Nc2ccc(C#N)cc2)C[C@@H]1c1nc2ccccc2[nH]1 [Glasdegib]
drug sensitivity score (MDA-MB-453 [1]): 0
drug sensitivity score (MDA-MB-453 [2]): 0

C=CC(=O)Nc1cccc(Nc2nc(Nc3ccc(OCCOC)cc3)ncc2F)c1 [Spebrutinib]
drug sensitivity score (MDA-MB-453 [1]): 0.7
drug sensitivity score (MDA-MB-453 [2]): 0.9

COc1cc(NS(C)(=O)=O)ccc1Nc1c2ccccc2nc2ccccc12 [Amsacrine]
drug sensitivity score (MDA-MB-453 [1]): 1.2
drug sensitivity score (MDA-MB-453 [2]): 2

CC[C@H](C)C(=O)O[C@H]1C[C@H](O)C=C2C=C[C@H](C)[C@H](CC[C@@H](O)C[C@@H](O)CC(=O)O)[C@H]21 [Pravastatin]
drug sensitivity score (MDA-MB-453 [1]): 0
drug sensitivity score (MDA-MB-453 [2]): 0.3

CNC(=O)c1cc(COc2nnc(Nc3ccc(Cl)cc3)c3ccoc23)ccn1 [Telatinib]
drug sensitivity score (MDA-MB-453 [1]): 1.2
drug sensitivity score (MDA-MB-453 [2]): 0

CC(=O)O[C@H]1C(=O)[C@@]2(C)[C@H]([C@H](OC(=O)c3ccccc3)[C@]3(O)C[C@H](OC(=O)[C@H](O)[C@@H](NC(=O)c4ccccc4)c4ccccc4)C(C)=C1C3(C)C)[C@]1(OC(C)=O)CO[C@@H]1C[C@@H]2O [Paclitaxel]
drug sensitivity score (MDA-MB-453 [1]): 18.3
drug sensitivity score (MDA-MB-453 [2]): 15.2

Nc1nc2cc(-c3ccc4ncc(C(=O)N5CCOCC5)n4c3)ccc2o1 [Serabelisib]
drug sensitivity score (MDA-MB-453 [1]): 7.8
drug sensitivity score (MDA-MB-453 [2]): 9.8

c1cc(CN2CCCNCCNCCCNCC2)ccc1CN1CCCNCCNCCCNCC1 [Plerixafor]
drug sensitivity score (MDA-MB-453 [1]): 0
drug sensitivity score (MDA-MB-453 [2]): 0

CO[C@H]1C[C@@H]2CC[C@@H](C)[C@@](O)(O2)C(=O)C(=O)N2CCCC[C@H]2C(=O)O[C@H]([C@H](C)C[C@@H]2CC[C@@H](OP(C)(C)=O)[C@H](OC)C2)CC(=O)[C@H](C)/C=C(\C)[C@@H](O)[C@@H](OC)C(=O)[C@H](C)C[C@H](C)/C=C/C=C/C=C/1C [Ridaforolimus]
drug sensitivity score (MDA-MB-453 [1]): 9.5
drug sensitivity score (MDA-MB-453 [2]): 14.7

C[C@@H]1COC(Nc2ccc3ncnc(Nc4ccc(OCc5nccs5)c(Cl)c4)c3c2)=N1 [Varlitinib]
drug sensitivity score (MDA-MB-453 [1]): 6.3
drug sensitivity score (MDA-MB-453 [2]): 9.1

Nc1nccc(-c2c(-c3ccc(F)cc3)ncn2C2CCCCC2)n1
drug sensitivity score (MDA-MB-453 [1]): 1.1
drug sensitivity score (MDA-MB-453 [2]): 0.6

CC(C)Oc1ccc(-c2nn([C@@H](C)c3oc4ccc(F)cc4c(=O)c3-c3cccc(F)c3)c3ncnc(N)c23)cc1F [TGR-1202]
drug sensitivity score (MDA-MB-453 [1]): 0.7
drug sensitivity score (MDA-MB-453 [2]): 0

Cc1c(F)cc(C(=O)NC2CC2)cc1-c1ccc(C(=O)NCC(C)(C)C)cn1 [Losmapimod]
drug sensitivity score (MDA-MB-453 [1]): 0.4
drug sensitivity score (MDA-MB-453 [2]): 1.4

CNc1ncc2cc(-c3cc(NC(=O)NCCC(C)(C)C)c(F)cc3C)c(C)nc2n1
drug sensitivity score (MDA-MB-453 [1]): 6.3
drug sensitivity score (MDA-MB-453 [2]): 3.8

O=C1CCC(N2C(=O)c3ccccc3C2=O)C(=O)N1 (centres undefined) [Thalidomide]
drug sensitivity score (MDA-MB-453 [1]): 0
drug sensitivity score (MDA-MB-453 [2]): 1

CC(C)C[C@@H](C(=O)N[C@H](C(=O)OC1CCCC1)c1ccccc1)[C@H](O)C(=O)NO [Tosedostat]
drug sensitivity score (MDA-MB-453 [1]): 9.4
drug sensitivity score (MDA-MB-453 [2]): 10.1

O=C(Nc1ccc(OC(F)(F)Cl)cc1)c1cnc(N2CC[C@@H](O)C2)c(-c2cc[nH]n2)c1 [Asciminib]
drug sensitivity score (MDA-MB-453 [1]): 3.4
drug sensitivity score (MDA-MB-453 [2]): 1.2

CC[C@@H]1C(=O)N(C)c2cnc(Nc3ccc(C(=O)N[C@H]4CC[C@H](N5CCN(CC6CC6)CC5)CC4)cc3OC)nc2N1C(C)C [Volasertib]
drug sensitivity score (MDA-MB-453 [1]): 10.5
drug sensitivity score (MDA-MB-453 [2]): 7.8

C[C@@H]1COCCN1c1cc(C2([S@](C)(=N)=O)CC2)nc(-c2cc[nH]c3nccc2-3)n1 [AZD6738]
drug sensitivity score (MDA-MB-453 [1]): 11
drug sensitivity score (MDA-MB-453 [2]): 10.7

Oc1ccc2c(c1)CC[C@H](c1ccccc1)[C@@H]2c1ccc(OCCN2CCCC2)cc1 [Lasofoxifene]
drug sensitivity score (MDA-MB-453 [1]): 0.7
drug sensitivity score (MDA-MB-453 [2]): 0.2

Cc1noc2c1-c1ccccc1C(c1ccc(Cl)cc1)=N[C@H]2CC(N)=O [CPI-0610]
drug sensitivity score (MDA-MB-453 [1]): 9.4
drug sensitivity score (MDA-MB-453 [2]): 10
